According to patent EP1920756A1, “Cosmetic matrix for a preservative-free cosmetic formulation” (SYRIO PHARMA S.P.A., priority 2006, dated 2008):
Several values for one entry are separate records, joined by “and”; a condition that tells them apart may be missing. Equal entries are not always repeated. Where two headings read alike, the source gives them in different places.

Experiments:
[1] = in contact with healthy and intact skin; cited from earlier work
CD80 (B7.1) = details: for CD80 (MFI*): THP-1, 48 hours, corrected by the negative control
Method: (§1) The test consisted in evaluating the pro-sensitising stimulus on human monocytes. It was deemed appropriate to use a cell model to evaluate the immunological reactivity of typical immunological cells (monocytes in this case) exposed for a prolonged time (48h) to the tested product in two different concentrations
(§2) The test was thus performed on a monocytes cell line named THP-1, as such a cell type is highly involved in the immunological responses of skin, which is the target organ of the tested cream. […] Nickel is in fact able to trigger in vivo allergising-type immunological reactions (contact sensitising).
(§3) The technique is based on the fact that the recognition of the antigen by the TCR (T Cell Receptor) of T lymphocytes (signal 1) is not functional to the maturation of an effective immune response, if it doesn't occur at the membrane of an antigen-presenting cell able to provide an additional signal (signal 2 or costimulus) qualitatively necessary for the definition of the response type (humoral, cellular, etc). Both B7.1 and B7.2 (collectively: B7) are membrane glycoproteins which are present on the surface of several antigen-presenting cells (dendritic cells, Langerhans cells, monocytes/macrophages, other cell lines such as keratinocytes) and serve as costimula. In fact, both these molecules are ligands of a glycoprotein named CD28, which are present on the T lymphocyte membrane. The triggering of the ligand/receptor system CD28B7 avoids the T cell apoptosis (i.e. the programmed cell death) and cooperates to sustain their proliferation and differentiation. In the first steps of the "physiological" immune response, B7.2 is expressed constitutively and modulates both the Th1 and Th2 responses.
(§4) An increase in expression of these co-stimulatory molecules on monocytes is thus a signal of activation of an immune response the exposure in consequence of a potentially allergising antigen. Functionally, in fact, the expression of co-stimulatory molecules on this cell type corresponds to the competence acquisition for expressing the antigen in the typical location (skin in this case) in which a contact sensitization occurs in vivo.
(§5) They were subjected to a preliminary cytotoxicity screening on THP-1 cells to determinate the concentration at which the substance could be used in vitro without causing cell death, event which causes false results.
(§6) Cell growth culture medium exposed to the same experimental conditions was used as a negative control. […]
(§7) After exposure, the cells were examined for their viability by staining with Trypan Blue dye and by observing under microscope in a corpuscle-counter chamber, collected, washed in a isotonic buffer (PBS) and then marked with a fluoresceinated anti-B7.1 or B7.2 antibody. After further washings to remove the excess antibody, the cells were feeded in a flux cytofluorimeter (FACS, Fluorescence Activated Cell Sorter, Becton Dickinson, Mountain View, CA) for the MFI (Mean Fluorescence Intensity) evaluation, which was proportional to the number of molecules marked per cell and therefore representative of the expression level of the tested co-stimulatory molecules.
(§8) As control (basal fluorescence), the MFI of both untreated THP-1 cells (apart from washings in PBS) and THP-1 cells reacted with a fluoresceinated monoclonal antibody (such as the anti-B7.1 and anti-B7.2), but of irrelevant specificity (isotype-matched control) was evaluated.

CD86 (B7.2) = details: THP-1, 48 hours, corrected by the negative control
Method: as §1, §2, §3, §4, §5, §6, §7, §8

[2] = system: stabilized human keratinocytes (HaCaT cells); experiment: Cytotoxicity evaluation with MTT method (UNI EN ISO 10993-5 rule); type: cell-based
Method: The test consisted in evaluating the cytotoxicity of the moisturizing cream […] aimed to be used on skin or on mucosae following the UNI EN ISO 10993-5 rule concerning the biological evaluation of medical devices. The cytotoxicity test was carried out towards the keratinocyte, the main cell component of skin and mucosae. […] The method is based on the fact that the mitochondrial dehydrogenases of viable cells are able to cleave the tetrazolium ring of MTT, leading to the formation of purple formazane crystals, which are insoluble in water. The crystals are dissolved in acidified isopropanol and the resulting purple solution is measured spectrophotometrically. An increase or decrease in viable cell number results in a concomitant change in the amount of formazan which is forming and can be considered as an indication of the degree of cytotoxicity caused by the exposure to the tested substances. The cell model employed for the in vitro test consisted of stabilized human keratinocytes (HaCaT cells). Cells were cultured in 24-well plates for 24 hours in DMEM + 10% FCS. Fresh culture medium was then added, supplemented with 10% FCS and containing a sample of the product to be tested so as to reach 6 final dilutions ranging from 5 to 0.15 mg/ml. For each sample of the cream […], three replica were performed. Untreated cells were used as negative control, and as positive control cells were treated with a surfactant with known toxicity, i.e. Sodium Lauryl Sulphate briefly referred to as SLS, dissolved in the culture medium in concentrations ranging from 0.5 mg/ml to 0.03 mg/ml. Specifically, samples with SLS amounts equal to 0.5, 0.25, 0.12, 0.06 and 0.03 mg/ml and […] amounts of 5, 2.5, 1.25, 0.6, 0.3, 0.15 mg/ml were prepared. At the end of treatment, the citotoxicity test (MTT) was carried out. The cells were then washed with washing solution (Dulbecco's Phosphate Buffered Saline). After removal of the solution, the MTT-culture medium was added to each well and the cells were incubated at 37°C. At the end of the incubation period, the MTT-culture medium was removed and a MTT solubilizing solution was added to each well. The plate was then stirred on a plate stirrer, while ensuring that all the crystals were dissolved and had formed a homogeneous solution. The absorbance was then read with a chromatometer equipped with a plate reader, by subtracting background reading. The result was expressed as: % cell survival = (OD treated cells × 100)/(OD untreated cells) [formula] […]

| SMILES | concentration able to cause an allergic reaction in most of the sensitive subjects [1] | increase in CD80, with respect to untreated controls (CD80 (B7.1); 4 µg/ml, data not shown) | CD80 (MFI*) (CD80 (B7.1); 10 µg/ml) | CD80 (MFI*) (CD80 (B7.1); 20 µg/ml) | CD86 (MFI*) (CD86 (B7.2); 10 µg/ml) | CD86 (MFI*) (CD86 (B7.2); 20 µg/ml) | Cell viability % (vs negative control) ([2]; Dose 0.03 mg/ml, MTT, Sulphate) | Cell viability % (vs negative control) ([2]; Dose 0.06 mg/ml, MTT, Sulphate) | Cell viability % (vs negative control) ([2]; Dose 0.12 mg/ml, MTT, Sulphate) | Cell viability % (vs negative control) ([2]; Dose 0.25 mg/ml, MTT, Sulphate) | Cell viability % (vs negative control) ([2]; Dose 0.5 mg/ml, MTT, Sulphate) | IC50 ([2]; Homo sapiens, read-out: concentration of 50% inhibition of cell growth (IC50), HaCaT, MTT, theoretical value from regression curve of dose-response) [µg/mL] | concentration of 50% inhibition of cell growth (IC50) ([2]; MTT, theoretical value from regression curve of dose-response, Sulphate) |
| --- | --- | --- | --- | --- | --- | --- | --- | --- | --- | --- | --- | --- | --- |
| O.O.O.O.O.O.O=S(=O)([O-])[O-].[Ni+2] [Nickel sulphate, Nickel Sulphate (NiSO46H2O)] | above 100 ppm | detectable increase | 19.85 and 18.33 | 29.00 and 33.48 | 37.35 and 33.26 | 77.12 and 87.92 |  |  |  |  |  |  |  |
| CCCCCCCCCCCCOS(=O)(=O)[O-].[Na+] [SLS, Sodium Lauryl Sulphate] |  |  |  |  |  |  | 87.6% and 94.7% and 98.5% and 92.7% | 61.0% and 79.6% and 76.7% and 73.9% | 2.5% and 3.9% and 0.2% and 1.9% | 2.3% and 2.9% and 0.1% and 1.5% | 2.3% and 2.2% and 0.2% and 1.2% | 60 | 70 µg/mL and 67 µg/mL |
